Laboratory results as given in US20250320206A1, “STAT6 DEGRADERS” (Gilead Sciences, Inc., priority 2024, published 2025).

Legend:
STAT6 = molecular target: T1, STAT6 (Homo sapiens, UniProt P42226); experiment: Stat6 Degrader Assay (HiBiT based, HeLa LgBiT clone 4.14); format: cell-based; conditions: HeLa LgBiT clone 4.14 HiBiT-STAT6, 4-24 h incubation; values given for compounds with >80% Emax; geometric mean; read-out: STAT6 degradation DC50
T1 construct: These cells express endogenous STAT6; host or cells: HeLa LgBiT clone 4.14
T1 sequence (P42226 1-847): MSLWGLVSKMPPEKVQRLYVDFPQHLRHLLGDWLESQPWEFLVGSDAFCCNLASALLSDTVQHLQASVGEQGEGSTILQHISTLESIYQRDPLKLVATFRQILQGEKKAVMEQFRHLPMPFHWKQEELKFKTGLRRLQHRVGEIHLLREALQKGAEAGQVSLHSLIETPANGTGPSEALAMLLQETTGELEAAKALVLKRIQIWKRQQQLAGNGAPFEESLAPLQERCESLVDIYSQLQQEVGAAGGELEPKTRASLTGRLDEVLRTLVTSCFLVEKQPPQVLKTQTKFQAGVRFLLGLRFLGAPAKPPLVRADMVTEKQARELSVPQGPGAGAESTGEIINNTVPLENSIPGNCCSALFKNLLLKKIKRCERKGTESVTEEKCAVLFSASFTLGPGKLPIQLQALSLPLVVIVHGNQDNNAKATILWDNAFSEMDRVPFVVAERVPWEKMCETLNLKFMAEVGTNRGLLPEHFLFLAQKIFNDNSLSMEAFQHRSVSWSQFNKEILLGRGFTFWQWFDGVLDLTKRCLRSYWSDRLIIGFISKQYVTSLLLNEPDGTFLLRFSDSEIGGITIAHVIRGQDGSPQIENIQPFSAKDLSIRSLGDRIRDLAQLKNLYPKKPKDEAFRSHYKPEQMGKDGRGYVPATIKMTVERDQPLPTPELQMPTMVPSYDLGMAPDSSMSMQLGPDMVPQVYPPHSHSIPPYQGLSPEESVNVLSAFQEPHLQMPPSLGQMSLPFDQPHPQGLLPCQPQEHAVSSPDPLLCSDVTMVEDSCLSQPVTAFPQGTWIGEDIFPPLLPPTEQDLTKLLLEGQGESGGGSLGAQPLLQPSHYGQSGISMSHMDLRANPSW
Summary of the method: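 Luminescence from HiBiT-STAT6 complementing stably expressed LgBiT in HeLa clone 4.14 reports remaining STAT6 protein. Cells (5000/well) exposed to compound for 4-24 h at 37° C; read 0.5 h after Nano-Glo addition. 100% degradation window set with 50 μM terfenadine; percent degradation plotted against concentration.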

[1] = tested on: Eotaxin-3 release in human whole blood stimulated with IL-4; experiment: Human Whole Blood Eotaxin-3 Assay (IL-4 stimulated eotaxin-3 release); format: cell-based; conditions: IL-4 stimulation, 48 h, values given for compounds with >80% Emax, geometric mean
Summary of the method: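 Eotaxin-3 (CCL26) release measured by MSD kit in plasma supernatant after 48 h IL-4 stimulation ([…]) of human whole blood. Compounds added in triplicate 4-fold dilutions 2 h before stimulation; 0.5% DMSO final, 37° C, 5% CO2.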

DC50 (STAT6) [nM]	EC50 [1] [nM]	SMILES
4.5	1.9	CNc1ccn(-c2ccnc3c2cc(CN2CC=C(c4c(F)cc(C(=O)N5CCC(CN6CCN(Cc7ccc8c(c7)n(C7CC7)c(=O)n8[C@H]7CCC(=O)NC7=O)C[C@@H]6C)CC5)cc4F)CC2)n3C)c(=O)c1 (single isomer, unassigned) [Example 3u72]
12	25.4	CNc1cc(=O)n(-c2ccnc3c2cc(CN2CCC(c4c(F)cc(C(=O)N5CCC(CN6CCN(Cc7ccc8c(c7)C(C)(C)C(=O)N8C7CCC(=O)NC7=O)CC6)CC5)cc4F)CC2)n3C)cc1F (centres unmarked) [Example 3u57, 3-(5-((4-((1-(3,5-difluoro-4-(1-((4-(5-fluoro-4-(methylamino)-2-oxopyridin-1 (2H)-yl)-1-methyl-1H-pyrrolo[2,3-b]pyridin-2-yl)methyl)piperidin-4-yl)benzoyl)piperidin-4-yl)methyl)piperazin-1-yl)methyl)-3,3-dimethyl-2-oxoindolin-1-yl)piperidine-2,6-dione]
0.5	1.7	CNc1cc(=O)n(-c2ccnc3c2cc([C@H](C)N2CCC(c4ccc(C(=O)N5CCC(CN6CCN(Cc7ccc8c(c7)C7(CC7)C(=O)N8[C@H]7CCC(=O)NC7=O)C[C@@H]6C)CC5)cc4)CC2)n3C)cc1F (single isomer, unassigned) [Example 3u37]
6.8	2.4	CNc1ccn(-c2ccnc3c2cc(CN2CC=C(c4c(F)cc(C(=O)N5CCC(CN6CCN(Cc7ccc8c(c7)n(C7CC7)c(=O)n8[C@@H]7CCC(=O)NC7=O)C[C@@H]6C)CC5)cc4F)CC2)n3C)c(=O)c1 (single isomer, unassigned) [Example 3u73]
0.3	0.2	CNc1ccn(-c2ccnc3c2cc([C@H](C)N2CC=C(c4c(C)cc(C(=O)N5CCC(CN6CCN(Cc7cc8c(cc7F)n(C7CCC(=O)NC7=O)c(=O)n8C)C[C@@H]6C)CC5)cc4F)CC2)n3C)c(=O)c1 (stereo partly drawn) [Example 3u207, 3-(6-fluoro-5-(((S)-4-((1-(3-fluoro-5-methyl-4-(1-((S)-1-(1-methyl-4-(4-(methyl-amino)-2-oxopyridin-1 (2H)-yl)-1H-pyrrolo[2,3-b]pyridin-2-yl)ethyl)-1,2,3,6-tetrahydropyridin-4-yl)-benzoyl)piperidin-4-yl)methyl)-3-methylpiperazin-1-yl)methyl)-3-methyl-2-oxo-2,3-dihydro-1H-benzo[d]imidazol-1-yl)piperidine-2,6-dione]
6.6	13.2	CNc1cc(=O)n(-c2ccnc3c2cc([C@H](C)N2CC=C(c4c(C)cc(C(=O)N5CCC(CN6CCN(Cc7cc8c(cc7F)N(C7CCC(=O)NC7=O)C(=O)C87CC7)CC6)CC5)cc4F)CC2)n3C)cc1F (stereo partly drawn) [Example 3u152, 3-(6′-fluoro-5′-((4-((1-(3-fluoro-4-(1-((S)-1-(4-(5-fluoro-4-(methylamino)-2-oxopyridin-1 (2H)-yl)-1-methyl-1H-pyrrolo[2,3-b]pyridin-2-yl)ethyl)-1,2,3,6-tetrahydropyridin-4-yl)-5-methylbenzoyl)piperidin-4-yl)methyl)piperazin-1-yl)methyl)-2′-oxospiro[cyclopropane-1,3′-indolin]-1′-yl)piperidine-2,6-dione]
8.5	9.1	CNc1ccn(-c2ccnc3c2cc(CN2CCC(c4c(F)cc(C(=O)N5CCC(CN6CCN(Cc7cc8c(cc7F)N([C@H]7CCC(=O)NC7=O)C(=O)C87CC7)CC6)CC5)cc4F)CC2)n3C)c(=O)c1 (single isomer, unassigned) [Example 3u43]
0.3	0.9	CNc1cc(=O)n(-c2ccnc3c2cc([C@H](C)N2CC=C(c4c(C)cc(C(=O)N5CCC(CN6CCN(Cc7ccc8c(c7)n(C)c(=O)n8C7CCC(=O)NC7=O)C[C@@H]6C)CC5)cc4F)CC2)n3C)cc1F (stereo partly drawn) [Example 3u90, 3-(5-(((S)-4-((1-(3-fluoro-4-(1-((S)-1-(4-(5-fluoro-4-(methylamino)-2-oxopyridin-1 (2H)-yl)-1-methyl-1H-pyrrolo[2,3-b]pyridin-2-yl)ethyl)-1,2,3,6-tetrahydropyridin-4-yl)-5-methylbenzoyl)piperidin-4-yl)methyl)-3-methylpiperazin-1-yl)methyl)-3-methyl-2-oxo-2,3-dihydro-1H-benzo[d]imidazol-1-yl)piperidine-2,6-dione]
1.8	2.2	CNc1cc(=O)n(-c2ccnc3c2cc(CN2CCC(c4c(F)cc(C(=O)N5CCC(CN6CCN(Cc7ccc8c(c7)C7(CC7)C(=O)N8C7CCC(=O)NC7=O)C[C@@H]6C)CC5)cc4F)CC2)n3C)cc1F (stereo partly drawn) [Example 3u219, 3-(5′-(((S)-4-((1-(3,5-difluoro-4-(1-((4-(5-fluoro-4-(methylamino)-2-oxopyridin-1 (2H)-yl)-1-methyl-1H-pyrrolo[2,3-b]pyridin-2-yl)methyl)piperidin-4-yl)benzoyl)piperidin-4-yl)methyl)-3-methylpiperazin-1-yl)methyl)-2′-oxospiro[cyclopropane-1,3′-indolin]-1′-yl)piperidine-2,6-dione]
6	6.3	CNc1ccn(-c2ccnc3c2cc(CN2CCC(c4c(F)cc(C(=O)N5CCC(CN6CCN(Cc7ccc8c(c7)C(C)(C)C(=O)N8[C@H]7CCC(=O)NC7=O)CC6)CC5)cc4F)CC2)n3C)c(=O)c1 (single isomer, unassigned) [Example 3u17]
2.2	4.8	CNc1cc(=O)n(-c2ccnc3c2cc([C@H](C)N2CC=C(c4c(C)cc(C(=O)N5CCC(CN6CCN(Cc7ccc8c(c7)C7(CCC7)C(=O)N8C7CCC(=O)NC7=O)C[C@@H]6C)CC5)cc4F)CC2)n3C)cc1F (stereo partly drawn) [Example 3u309, 3-(5′-(((S)-4-((1-(3-fluoro-4-(1-((S)-1-(4-(5-fluoro-4-(methylamino)-2-oxopyridin-1 (2H)-yl)-1-methyl-1H-pyrrolo[2,3-b]pyridin-2-yl)ethyl)-1,2,3,6-tetrahydropyridin-4-yl)-5-methylbenzoyl)piperidin-4-yl)methyl)-3-methylpiperazin-1-yl)methyl)-2′-oxospiro[cyclobutane-1,3′-indolin]-1′-yl)piperidine-2,6-dione]
0.8	0.3	CNc1ccn(-c2ccnc3c2cc([C@H](C)N2CC=C(c4c(C)cc(C(=O)N5CCC(CN6CCN(c7ccc8c(c7)n(C)c(=O)n8[C@@H]7CCC(=O)NC7=O)CC6)CC5)cc4F)CC2)n3C)c(=O)c1 (single isomer, unassigned) [Example 3u294]
3.2	1.3	CNc1ccn(-c2ccnc3c2cc(CN2CCC(c4c(F)cc(C(=O)N5CCC(CN6CCN(Cc7ccc8c(c7)C7(CC7)C(=O)N8C7CCC(=O)NC7=O)C[C@@H]6C)CC5)cc4F)CC2)n3C)c(=O)n1 (stereo partly drawn) [Example 3h12, 3-(5′-(((S)-4-((1-(3,5-difluoro-4-(1-((1-methyl-4-(4-(methylamino)-2-oxopyrimidin-1 (2H)-yl)-1H-pyrrolo[2,3-b]pyridin-2-yl)methyl)piperidin-4-yl)benzoyl)piperidin-4-yl)methyl)-3-methylpiperazin-1-yl)methyl)-2′-oxospiro[cyclopropane-1,3′-indolin]-1′-yl)piperidine-2,6-dione]
7.8	101	CNc1cc(=O)n(-c2ccnc3c2cc([C@H](C)N2CC=C(c4c(C)cc(C(=O)N5CCC(CN6CCN(c7ccc8c(c7)C(C)(C)C(=O)N8[C@H]7CCC(=O)NC7=O)CC6)CC5)cc4F)CC2)n3C)cc1F (single isomer, unassigned) [Example 3u285]
10.2	23.8	CNc1cc(=O)n(-c2ccnc3c2cc(CN2CCC(c4c(F)cc(C(=O)N5CCC(CN6CCN(Cc7cc8c(cc7F)N([C@H]7CCC(=O)NC7=O)C(=O)C87CC7)CC6)CC5)cc4F)CC2)n3C)cc1F (single isomer, unassigned) [Example 3u94]
12	2.7	CNc1cc(=O)n(-c2ccnc3c2cc(CN2CC=C(c4c(F)cc(C(=O)N5CCC(CN6CCN(Cc7ccc8c(c7)n(C)c(=O)n8C7CCC(=O)NC7=O)C[C@@H]6C)CC5)cc4F)CC2)n3C)cc1F (stereo partly drawn) [Example 3u54, 3-(5-(((S)-4-((1-(3,5-difluoro-4-(1-((4-(5-fluoro-4-(methylamino)-2-oxopyridin-1 (2H)-yl)-1-methyl-1H-pyrrolo[2,3-b]pyridin-2-yl)methyl)-1,2,3,6-tetrahydropyridin-4-yl)benzoyl)piperidin-4-yl)methyl)-3-methylpiperazin-1-yl)methyl)-3-methyl-2-oxo-2,3-dihydro-1H-benzo[d]imidazol-1-yl)piperidine-2,6-dione]
